Experimental data as given in the NIST ThermoML archive (doi:10.1021/je3007666).

Experiment: relative permittivity at zero frequency (dimensionless); xn = mol fraction of the nth substance listed
Conditions: 100 kPa, Liquid, Dielectrometer

CC(C)CO [2-methyl-1-propanol] + CC(C)(C)O
relative permittivity at zero frequency
Conditions	288.15 K	293.15 K	298.15 K	303.15 K	308.15 K
x2 = 0	19.51	18.71	17.96	17.23	16.53
x2 = 0.0497	19.46	18.65	17.85	17.09	16.37
x2 = 0.0999	19.37	18.52	17.74	16.96	16.21
x2 = 0.1502	19.24	18.38	17.57	16.78	16.05
x2 = 0.2002	19.09	18.24	17.43	16.62	15.84
x2 = 0.2497	18.94	18.08	17.25	16.42	15.63
x2 = 0.2998	18.78	17.89	17.08	16.22	15.44
x2 = 0.3507	18.6	17.71	16.88	16.01	15.2
x2 = 0.4003	18.43	17.53	16.7	15.8	14.97
x2 = 0.4497	18.26	17.36	16.49	15.57	14.74
x2 = 0.4998	18.11	17.15	16.3	15.34	14.47
x2 = 0.5501	17.93	16.96	16.07	15.07	14.22
x2 = 0.6012	17.74	16.74	15.83	14.8	13.93
x2 = 0.649	17.53	16.5	15.58	14.52	13.61
x2 = 0.7003	17.3	16.24	15.28	14.2	13.27
x2 = 0.751	17.02	15.93	14.96	13.84	12.91
x2 = 0.8007	16.68	15.59	14.59	13.46	12.49
x2 = 0.8499	16.3	15.17	14.17	13.03	12.06
x2 = 0.9002	15.8	14.67	13.69	12.53	11.55
x2 = 0.9489	15.21	14.08	13.13	11.97	11.01

CC(C)(C)O [2-methylpropan-2-ol] + CCCCO
relative permittivity at zero frequency
Conditions	288.15 K	293.15 K	298.15 K	303.15 K	308.15 K
x1 = 0.0501	18.96	18.21	17.49	16.81	16.12
x1 = 0.1012	18.93	18.16	17.42	16.68	15.97
x1 = 0.1503	18.85	18.04	17.29	16.53	15.81
x1 = 0.2003	18.75	17.92	17.15	16.37	15.62
x1 = 0.2497	18.61	17.79	16.99	16.19	15.44
x1 = 0.299	18.48	17.63	16.85	16.01	15.25
x1 = 0.349	18.36	17.5	16.69	15.83	15.07
x1 = 0.3993	18.25	17.35	16.53	15.65	14.87
x1 = 0.4505	18.13	17.22	16.38	15.45	14.63
x1 = 0.5001	18.01	17.06	16.19	15.25	14.42
x1 = 0.5511	17.89	16.91	16.01	15.02	14.15
x1 = 0.5998	17.74	16.73	15.82	14.79	13.89
x1 = 0.649	17.6	16.54	15.58	14.51	13.59
x1 = 0.7001	17.39	16.31	15.32	14.21	13.25
x1 = 0.7503	17.15	16.03	15	13.88	12.89
x1 = 0.8003	16.84	15.7	14.63	13.48	12.49
x1 = 0.8497	16.45	15.26	14.21	13.03	12.04
x1 = 0.899	15.96	14.77	13.71	12.53	11.55
x1 = 0.95	15.29	14.15	13.15	11.97	11
x1 = 1	14.49	13.38	12.49	11.34	10.4

CC(C)(C)O [2-methylpropan-2-ol] + CCC(C)O
relative permittivity at zero frequency
Conditions	288.15 K	293.15 K	298.15 K	303.15 K	308.15 K
x1 = 0.0511	18.35	17.39	16.47	15.62	14.8
x1 = 0.1003	18.24	17.25	16.35	15.46	14.64
x1 = 0.1512	18.11	17.13	16.22	15.31	14.47
x1 = 0.199	17.97	16.98	16.06	15.15	14.28
x1 = 0.2498	17.85	16.83	15.92	14.98	14.1
x1 = 0.3007	17.71	16.67	15.77	14.79	13.92
x1 = 0.35	17.55	16.54	15.6	14.62	13.75
x1 = 0.3997	17.42	16.36	15.44	14.44	13.54
x1 = 0.4502	17.25	16.19	15.27	14.25	13.34
x1 = 0.5011	17.09	16	15.09	14.05	13.14
x1 = 0.5497	16.89	15.83	14.9	13.84	12.92
x1 = 0.6007	16.7	15.64	14.72	13.62	12.7
x1 = 0.6511	16.5	15.42	14.5	13.41	12.47
x1 = 0.701	16.28	15.17	14.26	13.17	12.23
x1 = 0.7497	16.03	14.93	14.03	12.89	11.96
x1 = 0.8005	15.76	14.68	13.78	12.63	11.68
x1 = 0.8488	15.49	14.39	13.5	12.32	11.39
x1 = 0.9003	15.19	14.07	13.18	12.01	11.07
x1 = 0.9496	14.84	13.72	12.84	11.68	10.74
x1 = 1	14.49	13.38	12.49	11.34	10.4

CC(C)CO [2-methyl-1-propanol] + CCC(C)O
relative permittivity at zero frequency
Conditions	288.15 K	293.15 K	298.15 K	303.15 K	308.15 K
x2 = 0	19.51	18.71	17.96	17.23	16.53
x2 = 0.0488	19.46	18.66	17.9	17.17	16.47
x2 = 0.1011	19.41	18.61	17.85	17.11	16.4
x2 = 0.1488	19.36	18.55	17.78	17.05	16.34
x2 = 0.2005	19.31	18.49	17.72	16.98	16.27
x2 = 0.2489	19.25	18.43	17.66	16.92	16.2
x2 = 0.3013	19.2	18.38	17.59	16.85	16.13
x2 = 0.3511	19.14	18.31	17.53	16.78	16.05
x2 = 0.3993	19.09	18.25	17.46	16.7	15.97
x2 = 0.4473	19.03	18.19	17.39	16.63	15.89
x2 = 0.4984	18.98	18.13	17.32	16.56	15.81
x2 = 0.5512	18.92	18.06	17.25	16.48	15.73
x2 = 0.5999	18.87	18	17.18	16.4	15.65
x2 = 0.649	18.81	17.94	17.1	16.32	15.56
x2 = 0.7017	18.76	17.88	17.03	16.24	15.48
x2 = 0.7502	18.71	17.81	16.96	16.16	15.39
x2 = 0.7989	18.66	17.75	16.89	16.08	15.3
x2 = 0.851	18.61	17.69	16.81	16	15.21
x2 = 0.9003	18.56	17.63	16.74	15.92	15.12
x2 = 0.9499	18.51	17.57	16.67	15.83	15.03
